# Reference: US9056108B2, “Method of treating atrial fibrillation” (Gilead Sciences, Inc., priority 2009, dated 2015)
# What was measured:
# [1] = system: coronary-perfused canine left ventricular (LV) preparations; assay: Electrophysiology in isolated coronary-perfused canine left ventricular preparations; settings: current in vitro investigation
# Experimental: Experiments were performed using isolated coronary-perfused canine right atrial (RA) and left ventricular (LV) preparations (≈3×1.5×1 cm). Isolation and perfusion of the preparations were as previously described.^9, 15, 16 Briefly, preparations were dissected from hearts removed from anesthetized (sodium pentobarbital) adult mongrel dogs (20-30 kg). Unfolded RA with attached rim of the right ventricle was cannulated and perfused with cold cardioplegic solution (4-8° C.) through the ostium of the right coronary artery; the LV wedge was perfused through a diagonal branch of the left anterior descending coronary artery. Unperfused tissue was removed with a razor blade. […]
# Transmembrane action potential (AP) recordings were obtained using floating glass microelectrodes at a sampling rate of 40 kHz. A pseudo-electrocardiogram (ECG) was recorded using two electrodes consisting of Ag/AgCl half cells placed in the Tyrode's solution bathing the preparation, 1.0 to 1.5 cm from the two opposite sides of the atrial or ventricular coronary-perfused preparations. […] Diastolic threshold of excitation (DTE) was determined by increasing stimulus intensity in 0.01 mA steps. Effective refractory period (ERP) was measured by delivering premature stimuli at progressively shorter S1-S2 intervals after every 10 basic beats at a pacing cycle length (CL) of 500 ms (5 ms steps; 2 times DTE). […]
# [2] = system: female rabbit isolated heart treated with E-4031; assay: Torsades de pointes in rabbit isolated heart treated with E-4031; settings: E-4031 60 nM; dronedarone 10 μM
# Experimental: Each rabbit was sedated using intramuscular injections of 6 mg/kg xylazine and 40 mg/kg ketamine and then anesthetized using a “cocktail” of ketamine (15 mg/kg)+xylazine (4 mg/kg) in 1.5 ml saline. The ketamine/xylazine cocktail was administered as an i.v. bolus via the marginal ear vein. After anesthesia was confirmed, the thorax was opened and the heart was quickly excised. The heart was placed in a modified Krebs-Henseleit (K-H) physiological saline solution at room temperature. […] CPP was measured (with a Biopac MP 150 pressure transducer, Goleta, Calif.) from a side port of the aortic catheter. To facilitate exit of fluid from the chamber of the left ventricle (LV), the leaflets of the mitral valve were trimmed with fine spring-handled scissors. The right atrial wall was partially removed.
# Complete AV block was induced by thermo-ablation of the AV nodal area. […] A bipolar Teflon-coated electrode was placed on the right ventricular septum to pace the heart. Electrical stimuli 3 ms in width and 3-fold threshold amplitude were delivered to the pacing electrode at a frequency of 1 Hz throughout the experiments using a Grass S48 stimulator (W. Warwick, R.I.).
# After initiation of ventricular pacing, a 30-40 min equilibration delay was allowed for heart rate (and CPP) to achieve a steady state, an essential experimental condition for recording a good quality monophasic action potential (MAP) recording.
# Monophasic action potential (MAP) and ECG electrodes from Harvard Apparatus Inc. (Holliston, Mass.) were used to record heart rate (in beats per minute, or bpm), left ventricular MAPs and a bipolar ECG MAP electrodes were pressure contact Ag—AgCl cells attached to a circular holder with springs to keep the electrodes in contact with the LV epicardial surface. Two MAP electrodes were placed on the epicardial ventricular free wall below the level of the atrial-ventricular valves, one at the base to record a basal MAP and one at the apex to record an apical MAP. […] Signals were saved on a computer hard disk for subsequent analysis. Bipolar electrocardiograms (ECG) were generated using an isolated-heart ECG apparatus (Harvard Apparatus, Holliston, Mass.) attached to Biopac amplifier system.
# [3] = in vivo; cited from earlier work
smiles,measurement,setting,value
"CCCCc1oc2ccc(NS(C)(=O)=O)cc2c1C(=O)c1ccc(OCCCN(CCCC)CCCC)cc1 [Dronedarone, N-(2-Butyl-3-(p-(3-(dibutylamino)propoxy)benzoyl)-5-benzofuranyl)methanesulfonamide]",Prolongation of ventricular ERP,[1],4%
same,Occurrences of torsades de pointes (TdP) (hearts),[2],1/6
same,Half-life of elimination,[3],about 24 hours
